Experimental data reported in patent US20220041616A1, “SPIRO COMPOUND AND MEDICAL USES THEREOF” (The National Institutes of Pharmaceutical R&D Co., Ltd., priority 2018, published 2022).

What follows are compounds tested against T1, ACC1 (Homo sapiens, UniProt Q13085) (assay: In vitro inhibition of ACC1 activity, ADP-Glo Kinase Analysis). Conditions: 1 nM ACC1, 10 μM acetyl-CoA, 20 μM ATP.
T1 construct: purchased BPS bioscience
Assay type: biochemical
Outline: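 Enzyme was preincubated with compound for 15 min, then reacted for 30 min at room temperature in 5% DMSO, with ADP measured by ADP-Glo luminescence. ACC1: 1 nM, with 10 μM acetyl-CoA, 30 mM NaHCO3 and 20 μM ATP. ACC2: 1.1 nM, with 20 μM acetyl-CoA, 20 mM NaHCO3 and 15 μM ATP.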

IC50, < 10 nM:
COc1ccccc1C(CN1C(=O)C2(CCC(C(=O)O)C2)C(=O)c2c1sc(-c1ncco1)c2C)OC1CCOCC1 (mixture of isomers) [Compound 5x, 7′-(2-(2-methoxyphenyl)-2-((tetrahydro-2H-pyran-4-yl)oxy)ethyl)-3′-methyl-2′-(oxazol-2-yl)-4′,6′-dioxo-6′,7′-dihydro-4′H-spiro[cyclopentane-1,5′-thieno[2,3-b]pyridine]-3-carboxylic Acid]
COc1ccccc1C(CN1C(=O)C2(CCC(C(=O)O)C2)C(=O)c2c1sc(-c1ncco1)c2C)OC1CCOCC1 (mixture of isomers) [Compound 5y, 7′-(2-(2-methoxyphenyl)-2-((tetrahydro-2H-pyran-4-yl)oxy)ethyl)-3′-methyl-2′-(oxazol-2-yl)-4′,6′-dioxo-6′,7′-dihydro-4′H-spiro[cyclopentane-1,5′-thieno[2,3-b]pyridine]-3-carboxylic Acid]
COc1ccccc1C(CN1C(=O)C2(CC(C(=O)O)C2)C(=O)c2c1sc(-c1ncco1)c2C)OC1CCOCC1 (mixture of isomers) [Compound 8, 7′-(2-(2-methoxyphenyl)-2-((tetrahydro-2H-pyran-4-yl)oxy)ethyl)-3′-methyl-2′-(oxazol-2-yl)-4′,6′-dioxo-6′,7′-dihydro-4′H-spiro[cyclobutane-1,5′-thieno[2,3-b]pyridine]-3-carboxylic Acid]
COc1ccccc1C(CN1C(=O)C2(CCC(C(=O)O)C2)C(=O)c2c1sc(-c1ncco1)c2C)OC1CCOCC1 (single isomer, unassigned) [Compound 5b, 7′-(2-(2-methoxyphenyl)-2-((tetrahydro-2H-pyran-4-yl)oxy)ethyl)-3′-methyl-2′-(oxazol-2-yl)-4′,6′-dioxo-6′,7′-dihydro-4′H-spiro[cyclopentane-1,5′-thieno[2,3-b]pyridine]-3-carboxylic Acid]
COc1ccccc1C(CN1C(=O)C2(CC(C(=O)O)C2)C(=O)c2c1sc(-c1ncco1)c2C)OC1CCOCC1 (single isomer, unassigned) [Compound 8d, 7′-(2-(2-methoxyphenyl)-2-((tetrahydro-2H-pyran-4-yl)oxy)ethyl)-3′-methyl-2′-(oxazol-2-yl)-4′,6′-dioxo-6′,7′-dihydro-4′H-spiro[cyclobutane-1,5′-thieno[2,3-b]pyridine]-3-carboxylic Acid]
COc1ccccc1[C@H](CN1c2sc(-c3ncco3)c(C)c2C(=O)[C@]2(C[C@H](C(=O)O)C2)C1=O)OC1CCOCC1 [Compound 8c, 7′-(2-(2-methoxyphenyl)-2-((tetrahydro-2H-pyran-4-yl)oxy)ethyl)-3′-methyl-2′-(oxazol-2-yl)-4′,6′-dioxo-6′,7′-dihydro-4′H-spiro[cyclobutane-1,5′-thieno[2,3-b]pyridine]-3-carboxylic Acid]
